Test results taken from patent US20230286958A1, “PLASMA KALLIKREIN INHIBITORS” (Merck Sharp & Dohme LLC, priority 2020, published 2023).

Legend:
human Factor XIa = human Factor XIa (Homo sapiens (Human), UniProt P03951); test: Factor XIa Assay (fluorogenic substrate GPR-AFC); format: biochemical; conditions: Factor XIa (FXIa)
Human plasma kallikrein = Human plasma kallikrein (Homo sapiens (Human), UniProt P03952); test: Kallikrein Assay (fluorogenic substrate Acetyl-K-P-R-AFC); format: biochemical; conditions: Plasma Kallikrein (PKal)
Human plasma kallikrein, sequence (P03952 391-638): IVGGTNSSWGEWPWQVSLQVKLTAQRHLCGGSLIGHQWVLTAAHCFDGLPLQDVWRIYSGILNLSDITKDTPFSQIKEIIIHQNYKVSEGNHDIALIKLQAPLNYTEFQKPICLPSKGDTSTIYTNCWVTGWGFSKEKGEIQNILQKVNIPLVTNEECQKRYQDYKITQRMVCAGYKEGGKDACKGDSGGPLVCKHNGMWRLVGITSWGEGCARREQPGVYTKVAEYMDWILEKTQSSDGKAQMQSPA
Human plasma kallikrein, sequence (P03952 20-390 partner): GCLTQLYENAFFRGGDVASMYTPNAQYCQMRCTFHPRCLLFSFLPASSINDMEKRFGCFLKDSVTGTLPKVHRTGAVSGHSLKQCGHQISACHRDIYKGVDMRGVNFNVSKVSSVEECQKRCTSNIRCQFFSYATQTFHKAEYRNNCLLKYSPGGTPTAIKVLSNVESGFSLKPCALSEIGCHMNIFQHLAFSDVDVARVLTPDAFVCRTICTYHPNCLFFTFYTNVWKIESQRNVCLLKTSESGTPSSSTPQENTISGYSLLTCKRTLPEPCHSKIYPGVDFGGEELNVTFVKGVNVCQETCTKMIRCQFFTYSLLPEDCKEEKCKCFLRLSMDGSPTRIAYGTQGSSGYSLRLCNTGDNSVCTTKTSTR
Outline: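 Ki is derived from IC50 with the Cheng-Prusoff equation, and IC50 from the inflection point of a four-parameter logistic curve. The rate of AFC release is read with 0.5 nM purified enzyme and […] substrate at room temperature or 37 °C.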

human Factor XIa, sequence (P03951 388-625 limits assumed): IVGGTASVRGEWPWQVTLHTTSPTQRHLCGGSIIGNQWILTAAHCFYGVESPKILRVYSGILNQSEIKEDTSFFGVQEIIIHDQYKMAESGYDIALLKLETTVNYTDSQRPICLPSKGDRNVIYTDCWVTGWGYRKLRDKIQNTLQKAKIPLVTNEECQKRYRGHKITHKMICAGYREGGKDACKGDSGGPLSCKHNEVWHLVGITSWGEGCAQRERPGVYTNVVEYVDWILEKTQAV
human Factor XIa, sequence (P03951 19-387 partner limits assumed): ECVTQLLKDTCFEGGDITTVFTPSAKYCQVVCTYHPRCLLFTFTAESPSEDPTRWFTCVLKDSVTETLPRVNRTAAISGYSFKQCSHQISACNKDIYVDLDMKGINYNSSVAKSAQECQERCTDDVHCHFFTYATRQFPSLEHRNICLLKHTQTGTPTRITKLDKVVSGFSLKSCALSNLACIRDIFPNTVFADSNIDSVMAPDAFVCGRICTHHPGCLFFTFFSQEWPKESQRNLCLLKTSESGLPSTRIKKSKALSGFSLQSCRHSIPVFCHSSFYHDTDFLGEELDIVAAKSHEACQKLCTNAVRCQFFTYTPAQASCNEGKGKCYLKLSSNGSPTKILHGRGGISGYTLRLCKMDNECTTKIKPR

Row | SMILES | IC50 (human Factor XIa) [nM] | IC50 (Human plasma kallikrein) [nM]
1 | Cc1cc(C(C)n2cc(NC(=O)c3cncc(-c4c(OC(F)F)ccc(Cl)c4F)n3)cn2)nnc1N1C[C@H]2C[C@H]2C1=O (single isomer, unassigned) [Example 115, 6-(3-Chloro-6-(difluoromethoxy)-2-fluorophenyl)-N-(1-((R or S)-1-(5-methyl-6-((1R,5S)-2-oxo-3-azabicyclo[3.1.0]hexan-3-yl)pyridazin-3-yl)ethyl)-1H-pyrazol-4-yl)pyrazine-2-carboxamide] | 468 | 2.5
2 | Cc1c(N2C[C@H]3C[C@H]3C2=O)cnc(C(C)n2cc(NC(=O)c3cncc(-c4c(C(F)F)ccc(Cl)c4F)n3)cn2)c1N (single isomer, unassigned) [Example 117, N-(1-((S or R)-1-(3-Amino-4-methyl-5-((1R,SS)-2-oxo-3-azabicyclo[3.1.0]hexan-3-yl)pyridin-2-yl)ethyl)-1H-pyrazol-4-yl)-6-(3-chloro-6-(difluoromethyl)-2-fluorophenyl)pyrazine-2-carboxamide] | > 10000 | 1.9
3 | COCc1ncc(-c2c(C(F)F)ccc(Cl)c2F)nc1C(=O)Nc1cnn(C(C)c2cnc(N3C[C@H]4C[C@H]4C3=O)c(C)n2)c1 (single isomer, unassigned) [Example 125, 6-(3-Chloro-6-(difluoromethyl)-2-fluorophenyl)-3-(methoxymethyl)-N-(1-((S or R)-1-(6-methyl-5-((1R,5S)-2-oxo-3-azabicyclo[3.1.0]hexan-3-yl)pyrazin-2-yl)ethyl)-1H-pyrazol-4-yl)pyrazine-2-carboxamide] | 449 | 1.2
4 | Cc1ncc(-c2c(C(F)F)ccc(Cl)c2F)nc1C(=O)Nc1cnn(C(C)c2cnc(N3C[C@H]4C[C@H]4C3=O)c(F)c2C)c1 (single isomer, unassigned) [Example 127, 6-(3-Chloro-6-(difluoromethyl)-2-fluorophenyl)-N-(1-((S or i)-1-(5-fluoro-4-methyl-6-((1R,5S)-2-oxo-3-azabicyclo[3.1.0]hexan-3-yl)pyridin-3-yl)ethyl)-1H-pyrazol-4-yl)-3-methylpyrazine-2-carboxamide] | 596 | 0.5
5 | Cc1ncc(-c2c(OC(F)F)ccc(Cl)c2F)nc1C(=O)Nc1cnn(C(C)c2cnc(N3C[C@H]4C[C@H]4C3=O)c(F)c2C)c1 (single isomer, unassigned) [Example 130, 6-(3-Chloro-6-(difluoromethoxy)-2-fluorophenyl)-N-(1-((R or S)-1-(5-fluoro-4-methyl-6-((1R,5S)-2-oxo-3-azabicyclo[3.1.0]hexan-3-yl)pyridin-3-yl)ethyl)-1H-pyrazol-4-yl)-3-methylpyrazine-2-carboxamide] | 549 | 0.8
6 | Cc1cc(C(C)n2cc(NC(=O)c3nc(-c4c(OC(F)F)ccc(Cl)c4F)cnc3C)cn2)cnc1N1C[C@H]2C[C@H]2C1=O (single isomer, unassigned) [Example 131, 6-(3-Chloro-6-(difluoromethoxy)-2-fluorophenyl)-3-methyl-N-(1-((S or R)-1-(5-methyl-6-((1R,5S)-2-oxo-3-azabicyclo[3.1.0]hexan-3-yl)pyridin-3-yl)ethyl)-1H-pyrazol-4-yl)pyrazine-2-carboxamide] | 545 | 0.5
7 | Cc1cc(C(C)n2cc(NC(=O)c3nc(-c4c(OC(F)F)ccc(Cl)c4F)cnc3C)cn2)cnc1N1C[C@H]2C[C@H]2C1=O (single isomer, unassigned) [Example 132, 6-(3-Chloro-6-(difluoromethoxy)-2-fluorophenyl)-3-methyl-N-(1-((R or S)-1-(5-methyl-6-((1R,5S)-2-oxo-3-azabicyclo[3.1.0]hexan-3-yl)pyridin-3-yl)ethyl)-1H-pyrazol-4-yl)pyrazine-2-carboxamide] | 139 | 0.6

Results, then the compound that gave them:

Row | IC50 (human Factor XIa) [nM] | IC50 (Human plasma kallikrein) [nM] | SMILES
8 | 7570 | 1 | Cc1ncc(-c2c(C(F)F)ccc(Cl)c2F)nc1C(=O)Nc1cnn(C(C)c2ncc(N3C[C@H]4C[C@H]4C3=O)c(C)c2N)c1 (single isomer, unassigned) [Example 118, N-(1-((R or S)-1-(3-Amino-4-methyl-5-((1R,5S)-2-oxo-3-azabicyclo[3.1.0]hexan-3-yl)pyridin-2-yl)ethyl)-1H-pyrazol-4-yl)-6-(3-chloro-6-(difluoromethyl)-2-fluorophenyl)-3-methylpyrazine-2-carboxamide]
9 | 782 | 0.6 | Cc1cc(C(C)n2cc(NC(=O)c3nc(-c4c(C(F)F)ccc(Cl)c4F)cnc3C)cn2)cnc1N1C[C@H]2C[C@H]2C1=O (single isomer, unassigned) [Example 119, 6-(3-Chloro-6-(difluoromethyl)-2-fluorophenyl)-3-methyl-N-(1-((S or R)-1-(5-methyl-6-((1R,5S)-2-oxo-3-azabicyclo[3.1.0]hexan-3-yl)pyridin-3-yl)ethyl)-1H-pyrazol-4-yl)pyrazine-2-carboxamide]
10 | 149 | 0.5 | Cc1cc(C(C)n2cc(NC(=O)c3nc(-c4c(C(F)F)ccc(Cl)c4F)cnc3C)cn2)cnc1N1C[C@H]2C[C@H]2C1=O (single isomer, unassigned) [Example 120, 6-(3-Chloro-6-(difluoromethyl)-2-fluorophenyl)-3-methyl-N-(1-((R or S)-1-(5-methyl-6-((1R,5S)-2-oxo-3-azabicyclo[3.1.0]hexan-3-yl)pyridin-3-yl)ethyl)-1H-pyrazol-4-yl)pyrazine-2-carboxamide]
11 | > 10000 | 4.5 | Cc1cc(C(C)n2cc(NC(=O)c3cc(-c4c(C(F)F)ccc(Cl)c4F)nnc3C)cn2)cnc1N1C[C@H]2C[C@H]2C1=O (single isomer, unassigned) [Example 121, 6-(3-Chloro-6-(difluoromethyl)-2-fluorophenyl)-3-methyl-N-(1-((S or R)-1-(5-methyl-6-((1R,5S)-2-oxo-3-azabicyclo[3.1.0]hexan-3-yl)pyridin-3-yl)ethyl)-1H-pyrazol-4-yl)pyridazine-4-carboxamide]
12 | 5260 | 14.2 | Cc1cc(C(C)n2cc(NC(=O)c3cc(-c4c(C(F)F)ccc(Cl)c4F)nnc3C)cn2)cnc1N1C[C@H]2C[C@H]2C1=O (single isomer, unassigned) [Example 122, 6-(3-Chloro-6-(difluoromethyl)-2-fluorophenyl)-3-methyl-N-(1-((R or S)-1-(5-methyl-6-((1R,5S)-2-oxo-3-azabicyclo[3.1.0]hexan-3-yl)pyridin-3-yl)ethyl)-1H-pyrazol-4-yl)pyridazine-4-carboxamide]
13 | 364 | 1 | Cc1ncc(-c2c(OC(F)F)ccc(Cl)c2F)nc1C(=O)Nc1cnn(C(C)c2cnc(N3C[C@H]4C[C@H]4C3=O)c(C)n2)c1 (single isomer, unassigned) [Example 123, 6-(3-Chloro-6-(difluoromethoxy)-2-fluorophenyl)-3-methyl-N-(1-((S or R)-1-(6-methyl-5-((1R,5S)-2-oxo-3-azabicyclo[3.1.0]hexan-3-yl)pyrazin-2-yl)ethyl)-1H-pyrazol-4-yl)pyrazine-2-carboxamide]
14 | 963 | 0.6 | Cc1ncc(-c2c(OC(F)F)ccc(Cl)c2F)nc1C(=O)Nc1cnn(C(C)c2cnc(N3C[C@H]4C[C@H]4C3=O)c(C)n2)c1 (single isomer, unassigned) [Example 124, 6-(3-Chloro-6-(difluoromethoxy)-2-fluorophenyl)-3-methyl-N-(1-((R or S)-1-(6-methyl-5-((1R,5S)-2-oxo-3-azabicyclo[3.1.0]hexan-3-yl)pyrazin-2-yl)ethyl)-1H-pyrazol-4-yl)pyrazine-2-carboxamide]
15 | 5270 | 7.1 | Cc1ncc(-c2c(C(F)F)ccc(Cl)c2F)nc1C(=O)Nc1cnn(C(C)c2cnc(N3C[C@H]4C[C@H]4C3=O)c(F)c2C)c1 (single isomer, unassigned) [Example 128, 6-(3-Chloro-6-(difluoromethyl)-2-fluorophenyl)-N-(1-((R or S)-1-(5-fluoro-4-methyl-6-((1R,5S)-2-oxo-3-azabicyclo[3.1.0]hexan-3-yl)pyridin-3-yl)ethyl)-1H-pyrazol-4-yl)-3-methylpyrazine-2-carboxamide]
16 | 3210 | 4.3 | Cc1ncc(-c2c(OC(F)F)ccc(Cl)c2F)nc1C(=O)Nc1cnn(C(C)c2cnc(N3C[C@H]4C[C@H]4C3=O)c(F)c2C)c1 (single isomer, unassigned) [Example 129, 6-(3-Chloro-6-(difluoromethoxy)-2-fluorophenyl)-N-(1-((S or R)-1-(5-fluoro-4-methyl-6-((1R,5S)-2-oxo-3-azabicyclo[3.1.0]hexan-3-yl)pyridin-3-yl)ethyl)-IH-pyrazol-4-yl)-3-methylpyrazine-2-carboxamide]
17 | 510 | 0.6 | Cc1c(C(C)n2cc(NC(=O)c3cncc(-c4c(OC(F)F)ccc(Cl)c4F)n3)cn2)cnc(N2C[C@H]3C[C@H]3C2=O)c1F (single isomer, unassigned) [Example 133, 6-(3-Chloro-6-(difluoromethoxy)-2-fluorophenyl)-N-(1-((S or R)-1-(5-fluoro-4-methyl-6-((1R,5S)-2-oxo-3-azabicyclo[3.1.0]hexan-3-yl)pyridin-3-yl)ethyl)-1i-pyrazol-4-yl)pyrazine-2-carboxamide]
18 | 5570 | 13.9 | Cc1c(C(C)n2cc(NC(=O)c3cncc(-c4c(OC(F)F)ccc(Cl)c4F)n3)cn2)cnc(N2C[C@H]3C[C@H]3C2=O)c1F (single isomer, unassigned) [Example 134, 6-(3-Chloro-6-(difluoromethoxy)-2-fluorophenyl)-N-(1-((R or S)-1-(5-fluoro-4-methyl-6-((1R,5S)-2-oxo-3-azabicyclo[3.1.0]hexan-3-yl)pyridin-3-yl)ethyl)-1H-pyrazol-4-yl)pyrazine-2-carboxamide]
